Experimental data reported in US6355799B1, “Substituted benzene compounds, process for their preparation, and herbicidal and defoliant compositions containing them” (ISK Americas Incorporated, priority 1997, dated 2002).

What was measured:
Format in all cases: in vivo
[1] = test system: redroot pigweed (Amaranthus retroflexus, AMARE); test: Pre-emerge test, greenhouse herbicide activity screening; conditions: rating scale 0-100, 14 days after application
Procedure, shortened: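 Compounds in acetone were track-sprayed at 15-1000 g ai/ha (187 l/ha) on sandy loam pots: pre-emerge one day after seeding, post-emerge at 2-3 leaf stage with 0.25% v/v non-ionic surfactant. Phytotoxicity was rated 14 days later on a 0 (no damage) to 100 (complete death) scale.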

[2] = test system: barnyardgrass (Echinochloa crus-galli, ECHCG); test: as above; conditions: rating scale 0-100, 14 days after application
Procedure, shortened: (§1)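 Applied at 15–1000 g ai/ha from acetone in 187 l/ha spray volume. Post-emergence applications included 0.25% v/v non-ionic surfactant and reached plants sown 8–21 days before. Pre-emergence applications were incorporated by surface watering. Efficacy or crop damage was rated on a 0–100 scale after 14 days.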

[3] = test system: green foxtail (Setaria viridis, SETVI); test: as above; conditions: rating scale 0-100, 14 days after application
Procedure, shortened: as §1

[4] = test system: ivyleaf morningglory (Ipomoea hederacea, IPOHE); test: as above; conditions: rating scale 0-100, 14 days after application
Procedure, shortened: as §1

[5] = test system: johnsongrass (Sorghum halepense, SORHA); test: as above; conditions: rating scale 0-100, 14 days after application
Procedure, shortened: as §1

[6] = test system: lambsquarters (Chenopodium album, CHEAL); test: as above; conditions: rating scale 0-100, 14 days after application
Procedure, shortened: as §1

[7] = test system: large crabgrass (Digitaria sanguinalis, DIGSA); test: as above; conditions: rating scale 0-100, 14 days after application
Procedure, shortened: as §1

[8] = test system: sicklepod (Cassia obtusifolia, CASOB); test: as above; conditions: rating scale 0-100, 14 days after application
Procedure, shortened: as §1

[9] = test system: velvetleaf (Abutilon theophrasti, ABUTH); test: as above; conditions: rating scale 0-100, 14 days after application
Procedure, shortened: as §1

[10] = test system: field corn (Zea mays L., var. Dekalb 535, CORN); test: Pre-emerge test, crop safety; conditions: rating scale 0-100, 14 days after application
Procedure, shortened: (§2)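 Visual ratings on a 0-100 scale (0 no damage, 100 all plants dead) were taken at 14 days after treatment. Rates of 15-1000 g ai/ha in acetone, 187 l/ha, were sprayed onto soil one day after planting (pre-emerge) or onto 2-3 leaf plants with 0.25% v/v surfactant (post-emerge).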

[11] = test system: upland rice (Oryza sp., var. Tebonnet, RICE); test: Pre-emerge test, crop safety; conditions: rating scale 0-100, 14 days after application
Procedure, shortened: as §2

[12] = test system: barnyardgrass (Echinochloa crus-galli, ECHCG); test: Post-emerge test, greenhouse herbicide activity screening; conditions: rating scale 0-100 (0 no damage, 100 complete death), 14 days after application
Procedure, shortened: as §1

[13] = test system: common ragweed (Ambrosia artemisizfolia L., AMBEL); test: as above; conditions: rating scale 0-100 (0 no damage, 100 complete death), 14 days after application
Procedure, shortened: as §1

[14] = test system: green foxtail (Setaria viridis, SETVI); test: as above; conditions: rating scale 0-100 (0 no damage, 100 complete death), 14 days after application
Procedure, shortened: as §1

[15] = test system: ivyleaf morningglory (Ipomoea hederacea, IPOHE); test: as above; conditions: rating scale 0-100 (0 no damage, 100 complete death), 14 days after application
Procedure, shortened: as §1

[16] = test system: johnsongrass (Sorghum halepense, SORHA); test: as above; conditions: rating scale 0-100 (0 no damage, 100 complete death), 14 days after application
Procedure, shortened: as §1

[17] = test system: lambsquarters (Chenopodium album, CHEAL); test: as above; conditions: rating scale 0-100 (0 no damage, 100 complete death), 14 days after application
Procedure, shortened: as §1

[18] = test system: large crabgrass (Digitaria sanguinalis, DIGSA); test: as above; conditions: rating scale 0-100 (0 no damage, 100 complete death), 14 days after application
Procedure, shortened: as §1

[19] = test system: redroot pigweed (Amaranthus retroflexus, AMARE); test: as above; conditions: rating scale 0-100 (0 no damage, 100 complete death), 14 days after application
Procedure, shortened: as §1

[20] = test system: sicklepod (Cassia obtusifolia, CASOB); test: as above; conditions: rating scale 0-100 (0 no damage, 100 complete death), 14 days after application
Procedure, shortened: as §1

[21] = test system: velvetleaf (Abutilon theophrasti, ABUTH); test: as above; conditions: rating scale 0-100 (0 no damage, 100 complete death), 14 days after application
Procedure, shortened: as §1

[22] = test system: field corn (Zea mays L., var. Dekalb 535, CORN); test: Post-emerge test, crop safety; conditions: rating scale 0-100 (0 no damage, 100 complete death), 14 days after application
Procedure, shortened: as §1

[23] = test system: upland rice (Oryza sp., var. Tebonnet, RICE); test: Post-emerge test, crop safety; conditions: rating scale 0-100 (0 no damage, 100 complete death), 14 days after application
Procedure, shortened: as §1

`COCCOC(=O)C(C)(Cl)Cc1c(OC)c(Cl)cc(F)c1-n1c(=O)cc(C(F)(F)F)n(C)c1=O` (stereo not shown) [14-47] was tested, and the “Pre-emerge herbicidal activity, phytotoxicity rating AMARE” value ([1]; 63 g ai/ha) was 100, the “Pre-emerge herbicidal activity, phytotoxicity rating AMARE” value ([1]; 250 g ai/ha) was 100 and the “Pre-emerge herbicidal activity, phytotoxicity rating ECHCG” value ([2]; 63 g ai/ha) was 0. The “Pre-emerge herbicidal activity, phytotoxicity rating ECHCG” value ([2]; 250 g ai/ha) was 95, the “Pre-emerge herbicidal activity, phytotoxicity rating SETVI” value ([3]; 63 g ai/ha) was 0 and the “Pre-emerge herbicidal activity, phytotoxicity rating SETVI” value ([3]; 250 g ai/ha) was 99. For the same compound, the “Pre-emerge herbicidal activity, phytotoxicity rating IPOHE” value ([4]; 63 g ai/ha) was 0, the “Pre-emerge herbicidal activity, phytotoxicity rating IPOHE” value ([4]; 250 g ai/ha) was 0 and the “Pre-emerge herbicidal activity, phytotoxicity rating SORHA” value ([5]; 63 g ai/ha) was 0. The “Pre-emerge herbicidal activity, phytotoxicity rating SORHA” value ([5]; 250 g ai/ha) was 20, the “Pre-emerge herbicidal activity, phytotoxicity rating CHEAL” value ([6]; 63 g ai/ha) was 100 and the “Pre-emerge herbicidal activity, phytotoxicity rating CHEAL” value ([6]; 250 g ai/ha) was 100. The “Pre-emerge herbicidal activity, phytotoxicity rating DIGSA” value ([7]; 63 g ai/ha) was 30, the “Pre-emerge herbicidal activity, phytotoxicity rating DIGSA” value ([7]; 250 g ai/ha) was 100 and the “Pre-emerge herbicidal activity, phytotoxicity rating CASOB” value ([8]; 63 g ai/ha) was 0. The “Pre-emerge herbicidal activity, phytotoxicity rating CASOB” value ([8]; 250 g ai/ha) was 0, the “Pre-emerge herbicidal activity, phytotoxicity rating ABUTH” value ([9]; 63 g ai/ha) was 100 and the “Pre-emerge herbicidal activity, phytotoxicity rating ABUTH” value ([9]; 250 g ai/ha) was 100. The “Pre-emerge phytotoxicity rating, crop damage CORN” value ([10]; 63 g ai/ha) was 0, the “Pre-emerge phytotoxicity rating, crop damage CORN” value ([10]; 250 g ai/ha) was 0 and the “Pre-emerge phytotoxicity rating, crop damage RICE” value ([11]; 63 g ai/ha) was 0. For the same compound, the “Pre-emerge phytotoxicity rating, crop damage RICE” value ([11]; 250 g ai/ha) was 70, the “Post-emerge Herbicidal Activity, phytotoxicity rating ECHCG” value ([12]; Rate 63 g ai/ha) was 100 and the “Post-emerge Herbicidal Activity, phytotoxicity rating ECHCG” value ([12]; Rate 250 g ai/ha) was 100. The “Post-emerge Herbicidal Activity, phytotoxicity rating AMBEL” value ([13]; Rate 63 g ai/ha) was 100, the “Post-emerge Herbicidal Activity, phytotoxicity rating AMBEL” value ([13]; Rate 250 g ai/ha) was 100 and the “Post-emerge Herbicidal Activity, phytotoxicity rating SETVI” value ([14]; Rate 63 g ai/ha) was 90. For the same compound, the “Post-emerge Herbicidal Activity, phytotoxicity rating SETVI” value ([14]; Rate 250 g ai/ha) was 100, the “Post-emerge Herbicidal Activity, phytotoxicity rating IPOHE” value ([15]; Rate 63 g ai/ha) was 80 and the “Post-emerge Herbicidal Activity, phytotoxicity rating IPOHE” value ([15]; Rate 250 g ai/ha) was 100. The “Post-emerge Herbicidal Activity, phytotoxicity rating SORHA” value ([16]; Rate 63 g ai/ha) was 70, the “Post-emerge Herbicidal Activity, phytotoxicity rating SORHA” value ([16]; Rate 250 g ai/ha) was 80 and the “Post-emerge Herbicidal Activity, phytotoxicity rating CHEAL” value ([17]; Rate 63 g ai/ha) was 100. The “Post-emerge Herbicidal Activity, phytotoxicity rating CHEAL” value ([17]; Rate 250 g ai/ha) was 100, the “Post-emerge Herbicidal Activity, phytotoxicity rating DIGSA” value ([18]; Rate 63 g ai/ha) was 95 and the “Post-emerge Herbicidal Activity, phytotoxicity rating DIGSA” value ([18]; Rate 250 g ai/ha) was 100. The “Post-emerge Herbicidal Activity, phytotoxicity rating AMARE” value ([19]; Rate 63 g ai/ha) was 100, the “Post-emerge Herbicidal Activity, phytotoxicity rating AMARE” value ([19]; Rate 250 g ai/ha) was 100 and the “Post-emerge Herbicidal Activity, phytotoxicity rating CASOB” value ([20]; Rate 63 g ai/ha) was 0. For the same compound, the “Post-emerge Herbicidal Activity, phytotoxicity rating CASOB” value ([20]; Rate 250 g ai/ha) was 70, the “Post-emerge Herbicidal Activity, phytotoxicity rating ABUTH” value ([21]; Rate 63 g ai/ha) was 100 and the “Post-emerge Herbicidal Activity, phytotoxicity rating ABUTH” value ([21]; Rate 250 g ai/ha) was 100. For the same compound, the “Post-emerge phytotoxicity rating CORN (crop damage)” value ([22]; Rate 63 g ai/ha) was 40, the “Post-emerge phytotoxicity rating CORN (crop damage)” value ([22]; Rate 250 g ai/ha) was 100 and the “Post-emerge phytotoxicity rating RICE (crop damage)” value ([23]; Rate 63 g ai/ha) was 100. For the same compound, the “Post-emerge phytotoxicity rating RICE (crop damage)” value ([23]; Rate 250 g ai/ha) was 100.
